Source: ChEMBL document CHEMBL1201862, “PubChem BioAssay data set” (2004)
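Step 1: Grow cells in 96-well plates. Step 2: Expose to compound for 48 hours at 5 concentrations. Step 3: Interpolate endpoints linearly; if unreached, use highest concentration. The concentration for 50% growth inhibition is given as GI50.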 Calls of active or inactive are those of the source. No stated cut-off is given here; in the data, active = GI50 up to about 1.1 µM and inactive = higher.

Columns and labels:
Assay in all cases: inhibition of tumour cell growth, NCI panel, 48 h
[1] = test system: UACC-62
[2] = test system: SK-OV-3
[3] = test system: MCF7
[4] = test system: NCI/ADR-RES
[5] = test system: M14
[6] = test system: TK-10
[7] = test system: SK-MEL-2
[8] = test system: A498
[9] = test system: OVCAR-3
[10] = test system: HOP-62
[11] = test system: DU-145
[12] = test system: HT-29
[13] = test system: A549
[14] = test system: MDA-N
[15] = test system: T47D
[16] = test system: ACHN
[17] = test system: NCI-H23
[18] = test system: KM12
[19] = test system: HCT-15
[20] = test system: HOP-92

Compound: CN(Cc1cc(Br)cc(Br)c1O)Cc1c(O)ccc2ccccc12
- GI50 [1]: 19.7 µM (inactive)
- GI50 [2]: 19.6 µM (inactive)
- GI50 [3]: 26.4 µM (inactive)
- GI50 [4]: 34.6 µM (inactive)
- GI50 [5]: 17.2 µM (inactive)
- GI50 [6]: 17.4 µM (inactive)
- GI50 [7]: 17.8 µM (inactive)
- GI50 [8]: 20 µM (inactive)
- GI50 [9]: 15.2 µM (inactive)
- GI50 [10]: 18.7 µM (inactive)
- GI50 [11]: 21.1 µM (inactive)
- GI50 [12]: 14.5 µM (inactive)
- GI50 [13]: 17.7 µM (inactive)
- GI50 [14]: 16.3 µM (inactive)
- GI50 [15]: 21.9 µM (inactive)
- GI50 [16]: 22.7 µM (inactive)
- GI50 [17]: 22.6 µM (inactive)
- GI50 [18]: 17.2 µM (inactive)
- GI50 [19]: 30.3 µM
- GI50 [20]: 19.1 µM (inactive)

Compound: c1cc(CSc2ncnc3[nH]cnc23)ccn1
- GI50 [1]: 37.4 µM (inactive)
- GI50 [2]: 41.3 µM (inactive)
- GI50 [3]: 83.4 µM (inactive)
- GI50 [4]: > 100 µM (inactive)
- GI50 [5]: 34.8 µM (inactive)
- GI50 [6]: 59.8 µM (inactive)
- GI50 [7]: 80.5 µM (inactive)
- GI50 [8]: > 100 µM (inactive)
- GI50 [9]: 63 µM (inactive)
- GI50 [10]: 91.8 µM (inactive)
- GI50 [11]: 65.3 µM (inactive)
- GI50 [12]: 48.3 µM (inactive)
- GI50 [13]: > 100 µM (inactive)
- GI50 [14]: 42.9 µM (inactive)
- GI50 [15]: 76.6 µM (inactive)
- GI50 [16]: > 100 µM (inactive)
- GI50 [17]: > 100 µM (inactive)
- GI50 [18]: > 100 µM (inactive)
- GI50 [19]: > 100 µM
- GI50 [20]: > 100 µM (inactive)

Compound: COP(C)(=O)C1=CCN(C(=O)OCC[Si](C)(C)C)CC1 (stereo not given)
- GI50 [1]: > 100 µM (inactive)
- GI50 [2]: > 100 µM (inactive)
- GI50 [3]: > 100 µM (inactive)
- GI50 [4]: > 100 µM (inactive)
- GI50 [5]: > 100 µM (inactive)
- GI50 [6]: > 100 µM (inactive)
- GI50 [7]: > 100 µM (inactive)
- GI50 [8]: > 100 µM (inactive)
- GI50 [9]: > 100 µM (inactive)
- GI50 [10]: > 100 µM (inactive)
- GI50 [11]: > 100 µM (inactive)
- GI50 [12]: > 100 µM (inactive)
- GI50 [13]: > 100 µM (inactive)
- GI50 [14]: > 100 µM (inactive)
- GI50 [15]: > 100 µM (inactive)
- GI50 [16]: > 100 µM (inactive)
- GI50 [17]: > 100 µM (inactive)
- GI50 [18]: > 100 µM (inactive)
- GI50 [19]: > 100 µM
- GI50 [20]: > 100 µM (inactive)

Compound: CC1OC(O[C@H]2C3C=CO[C@@H](OC4OC(CO)C(O)C(O)C4O)C3[C@@]3(COC(=O)/C=C/c4ccccc4)O[C@@H]23)C(O)C(O)C1O (stereo not given in full)
- GI50 [1]: > 100 µM (inactive)
- GI50 [2]: > 100 µM (inactive)
- GI50 [3]: > 100 µM (inactive)
- GI50 [4]: > 100 µM (inactive)
- GI50 [5]: > 100 µM (inactive)
- GI50 [6]: > 100 µM (inactive)
- GI50 [7]: > 100 µM (inactive)
- GI50 [8]: > 100 µM (inactive)
- GI50 [9]: > 100 µM (inactive)
- GI50 [10]: > 100 µM (inactive)
- GI50 [11]: > 100 µM (inactive)
- GI50 [12]: > 100 µM (inactive)
- GI50 [13]: > 100 µM (inactive)
- GI50 [14]: > 100 µM (inactive)
- GI50 [15]: > 100 µM (inactive)
- GI50 [16]: > 100 µM (inactive)
- GI50 [17]: > 100 µM (inactive)
- GI50 [18]: > 100 µM (inactive)
- GI50 [19]: > 100 µM
- GI50 [20]: > 100 µM (inactive)

Compound: Cn1c(=O)oc2cc(C(=O)CSC(=S)N3CCCCCC3)ccc21
- GI50 [1]: > 100 µM (inactive)
- GI50 [2]: > 100 µM (inactive)
- GI50 [3]: > 100 µM (inactive)
- GI50 [4]: 54.2 µM (inactive)
- GI50 [5]: > 100 µM (inactive)
- GI50 [6]: > 100 µM (inactive)
- GI50 [7]: > 100 µM (inactive)
- GI50 [8]: 6.93 µM (inactive)
- GI50 [9]: > 100 µM (inactive)
- GI50 [10]: 61.1 µM (inactive)
- GI50 [11]: > 100 µM (inactive)
- GI50 [12]: 18.7 µM (inactive)
- GI50 [13]: > 100 µM (inactive)
- GI50 [14]: > 100 µM (inactive)
- GI50 [15]: 86.7 µM (inactive)
- GI50 [16]: > 100 µM (inactive)
- GI50 [17]: > 100 µM (inactive)
- GI50 [18]: 49.8 µM (inactive)
- GI50 [19]: 81.1 µM
- GI50 [20]: > 100 µM (inactive)
